Laboratory results reported in patent publication US20110178171A1, “COMPOUNDS FOR CANCER THERAPY” (China Medical University, priority 2010, published 2011).

System: LNCaP xenografts
Assay: Antitumor activity in vivo, LNCaP xenograft
Set-up: species or system mice
Procedure: Xenograft mice as a model system to study cytotoxicity effect of isochaihulactone in vivo: the implantation of cancer cells (LNCaP) were carried out similarly to previous reports. Female congenital athymic BALB/c nude (nu/nu) mice were purchased from National Sciences Council (Taipei, Taiwan) and all procedures were performed in compliance with the standard operating procedures of the Laboratory Animal Center of China Medical University (Taichung, Taiwan). All experiments were carried out using 6-8-week old mice weighing 18-22 g. The animals were s.c. implanted with 1×10^7 cell sinto the back of mice. When the tumor reached 80-120 mm3 in volume, animals were divided randomly into control and test groups consisting of six mice per group (day 0). Daily s.c. administration of z-K8, dissolved in a vehicle of 20% Tween 80 in normal saline (v/v) was performed from days 0 to 4 far from the inoculated tumor sites (>1.5 cm). The control group was treated with vehicle only. The mice were weighed three times a week up to days 21-28 to monitor the effects and the same time the tumor volume was determined by measurement of the length (L) and width (W) of the tumor. The tumor volume at day n (TVn) was calculated as TV (mm3)=(L×W^2)/2. The relative tumor volume at day n (RTVn) versus day 0 was expressed according to the following formula: RTVn=TVn/TV0. Tumor regression (T/C(%)) in treated versus control mice was calculated using: T/C(%)=(mean RTV of treated group)/(mean RTV of control group)×100. Xenograft tumors as well as other vital organs of treated and control. The results are shown in Tables 6 and 7 and FIGS. 6 and 7.
Assays were carried out to examine the inhibition of human xenografts growth in vivo by isochaihulactone. Briefly, LNCaP tumor-bearing mice were administered s.c. with vehicle control, 30 mg/kg E-K8, and Z-K8 respectively on days 0-4 for 5 days. The volumes of the tumors were measured. […] Scale bars, […]. Data represent means W S.D. of tumor volume at each time
Assays were carried out to examine the inhibition of human xenografts growth in vivo by Z-K8. Again, LNCaP tumor-bearing mice were administered s.c. with vehicle control, Z-K8 15 mg/kg on days 0-4 for 5 days. The volumes of the tumors were measured. […] Scale bars, […]. Data represent means W S.D. of tumor volume at each time point.

[1] = 30 mg/kg s.c. days 0-4, day 1 after administration
[2] = 30 mg/kg s.c. days 0-4, day 4 after administration
[3] = 30 mg/kg s.c. days 0-4, day 7 after administration
[4] = 30 mg/kg s.c. days 0-4, day 10 after administration
[5] = 30 mg/kg s.c. days 0-4, day 13 after administration
[6] = 30 mg/kg s.c. days 0-4, day 16 after administration
[7] = 30 mg/kg s.c. days 0-4, day 19 after administration

Compound: COc1cc(/C=C2\C(=O)OCC2Cc2ccc3c(c2)OCO3)cc(OC)c1OC (racemic) [Z-K8, Racemic (Z)-β-(3′,4′-Methylenedioxybenzyl)-α-(3′,4′,5′-trimethoxybenzylidene)-γ-butyrolactone]
- Relative tumor volume (15 mg/kg s.c. days 0-4, day 1 after administration): 1
- Relative tumor volume (15 mg/kg s.c. days 0-4, day 4 after administration): 1.59
- Relative tumor volume (15 mg/kg s.c. days 0-4, day 7 after administration): 1.91
- Relative tumor volume (15 mg/kg s.c. days 0-4, day 10 after administration): 1.94
- Relative tumor volume (15 mg/kg s.c. days 0-4, day 13 after administration): 2.13
- Relative tumor volume (15 mg/kg s.c. days 0-4, day 16 after administration): 1.79
- Relative tumor volume (15 mg/kg s.c. days 0-4, day 19 after administration): 2.00
- Relative tumor volume (15 mg/kg s.c. days 0-4, day 21 after administration): 2.23
- Relative tumor volume [1]: 1
- Tumor growth volume (mm^3) [1]: 0 mm^3
- Relative tumor volume [2]: 1.11
- Tumor growth volume (mm^3) [2]: 0 mm^3
- Relative tumor volume [3]: 1.12
- Tumor growth volume (mm^3) [3]: 90 mm^3
- Relative tumor volume [4]: 1.20
- Tumor growth volume (mm^3) [4]: 202.5 mm^3
- Relative tumor volume [5]: 1.23
- Tumor growth volume (mm^3) [5]: 260 mm^3
- Relative tumor volume [6]: 1.47
- Tumor growth volume (mm^3) [6]: 255 mm^3
- Relative tumor volume [7]: 1.23
- Tumor growth volume (mm^3) [7]: 200 mm^3
- Relative tumor volume (30 mg/kg s.c. days 0-4, day 21 after administration): 1.85
- Tumor growth volume (mm^3) (30 mg/kg s.c. days 0-4, day 22 after administration): 225 mm^3
- Tumor growth volume (mm^3) (30 mg/kg s.c. days 0-4, day 25 after administration): 375 mm^3
- Tumor growth volume (mm^3) (30 mg/kg s.c. days 0-4, day 28 after administration): 435 mm^3
- Tumor growth volume (mm^3) (30 mg/kg s.c. days 0-4, day 31 after administration): 633.5 mm^3
- tumor growth inhibition, in words (LNCaP tumor-bearing mice, 30 mg/kg s.c. days 0-4 (FIG. 6)): better tumor growth inhibition than E-form K8
